# Source: patent US20240156817A1, “TREATMENTS FOR PAIN” (Sevenless Therapeutics Limited, priority 2021, published 2024)
# Assays:
# [1] = test system: CFA-(Complete Freunds Adjuvant) induced hypersensitivity; test: CFA-induced hypersensitivity using weight-bearing in the C57BI6 mouse; assay type: in vivo
# Procedure: On 3 days before CFA dose: habituation to WB apparatus, baseline readings are taken once. 24 h before dosing: intraplantar injection of 20 μl of CFA 1.5 mg/ml to the left hind paw. 1 h before dosing: post-CFA readings are taken for WB. […] Naive animals distribute their body weight equally between the two hind paws. However, when a painful insult is given to one hindpaw (i.e., sciatic nerve constriction or CFA intraplantar injection), the weight is re-distributed so that less weight is put on the affected paw (with a decrease in weight bearing on the injured paw). Animals were placed in the incapacitance tester (Linton Instruments, UK) with the hind paws on separate sensors. The average forces exerted by the left and the right hindlimb were recorded over 2 s. Weight-bearing readings were taken for both left and right hind paws. The ratio ipsilateral/contralateral was calculated and expressed in % (mean±s.e.m.). Statistics: Two-Way RM Mixed model (treatment×repeated factor: time) (InVivoStat v3.7.0.0)
# [2] = test system: Nerve Growth Factor (NGF) stimulated phospho-ERK1/2 activation in PC-12 cells; test: Inhibition of NGF stimulated pERK1/2 activation in the PC-12 cell line (HTRF), alone and combined with anti-NGF; assay type: cell-based, rat
# Procedure: Homogeneous Time-Resolved Fluorescence (HTRF) assay:
# Reagents from the HTRF commercial kit (Cisbio) were prepared according to the manufacturer's instructions.
# PC-12 cells were isolated from routine cellular culture and plated at an appropriate cell density in 384-well plates (typically 25,000 cells per well) for 24 hours under serum-starved conditions. […] Following the 30-minute compound pre-incubation, PC-12 cells were treated with NGF (titrations of NGF from 250 ng/mL to 10 ng/mL were tested), and subsequently incubated for a 5-minute period (37° C./5% CO2). […] A 2-hour incubation at room temperature was performed prior to fluorescence signal determination using a microplate reader (PHERAstar FSX, BMG Labtech).
# Percentage inhibition values were calculated per compound concentration by normalising the sample data to the high and low controls used within each plate (+/−25 ng/mLNGF respectively). […]
# PC-12 cells were isolated from routine cellular culture and plated at an appropriate cell density (typically 25,000 cells per well) in 384-well plates for 24 hours under serum-starved conditions. […] A 2-hour incubation at room temperature was performed prior to fluorescence signal being measured in a microplate reader (PHERAstar FSX, BMG Labtech). […]
# [3] = test system: pain models (knee osteoarthritis pain, arthritic joint, auto-immune arthritis); conditions: rats as printed; cited papers say mouse; cited from earlier work
substance,measurement,setting,value
"Tanezumab: an anti-NGF antibody, pain drug candidate","weight-bearing, ratio ipsilateral/contralateral (mean)","[1]; Tanezumab 3 mg/kg, DRUG TREATED 0.5 h (approx)",82.54%
same,"weight-bearing, ratio ipsilateral/contralateral (mean)","[1]; Tanezumab 3 mg/kg, DRUG TREATED 8.5 h (approx)",94.11%
same,"weight-bearing, ratio ipsilateral/contralateral (mean)","[1]; Tanezumab 3 mg/kg, DRUG TREATED 24.5 h (approx)",89.88%
same,"weight-bearing, ratio ipsilateral/contralateral (mean)","[1]; Tanezumab 3 mg/kg, DRUG TREATED 32.5 h (approx)",84.25%
same,"weight-bearing, ratio ipsilateral/contralateral (mean)","[1]; combination study, Tanezumab 3 mg/kg i.p. alone, DRUG TREATED (d2 PM)",99.84%
same,efficacy,[2]; Tanezumab at a concentration of 50 nM,90%
same,efficacy,[2]; tanezumab at a concentration of 200 nM,100%
same,dose at which efficacy is shown (scientific literature),[3],10 mg/kg
